According to patent US11690845B2, “Methods of administering elagolix” (priority 2020, dated 2023):

Experiments:
[1] = Drug interaction studies: pharmacokinetics of co-administered drug in the presence of elagolix; type: in vivo, human; details: for changes in exposures when co-administered with elagolix: elagolix 300 mg twice daily
Method: Drug interaction studies were performed with elagolix and other drugs likely to be co-administered and with drugs commonly used as probes for pharmacokinetic interactions. Tables 7 and 8 summarize the pharmacokinetic effects when elagolix was co-administered with these drugs.

[2] = clinical; details: human, in vivo
Method: Subjects: Twenty adult premenopausal female subjects were enrolled in the study.
Beginning on Day 3, subjects received elagolix 300 mg BID under fasting conditions every day until Day 10. […] Doses of elagolix were separated by approximately 12 hours.
Testing was performed for CYP2C19 variants including the *2 (rs4244285), *3 (rs4986893), *4 (rs28399504), *8 (rs41291556), *10 (rs6413438) and *12 (rs55640102) alleles.
Safety was evaluated during confinement and at each study visit through adverse event monitoring, vital signs measurements, physical examinations, and routine laboratory tests.

[3] = Drug interactions: effects of ORIAHNN on plasma exposure of other drugs; details: co-administration of ORIAHNN
[4] = tested on: CYP3A; assay: Substrate of / metabolism by CYP3A; type: in vitro ADME
[5] = Drug-drug interaction study: effect of elagolix on pharmacokinetics of CYP2B6 substrate bupropion and OH-bupropion; safety; details: for Tmax / Metabolite to Parent AUCinf Ratio / Metabolite to Parent AUCt Ratio / Metabolite to Parent Cmax Ratio: median; for Tmax: N = 24; for t1/2: harmonic mean; for AUCinf / AUCt / Cmax: mean
Method: Subjects: Twenty four (24) adult premenopausal women in generally good health participated in this study.
Elagolix 300 mg BID (as 300 mg immediate release tablets) was administered in the morning and evening on days 1 through 14 in period 2. […] No food was consumed for 2 hours prior to the evening doses of elagolix continuing through 2 hours after. The doses of elagolix were separated by approximately 12 hours.
Individual PK parameters (peak concentration [Cmax] and area under the concentration-time curve [AUC]) were estimated using noncompartmental methods.
Central value ratios (90% confidence intervals) for Cmax, AUC, and metabolite to parent ratios (MPRs) (day 11, period 2 vs. day 1, period 1) were calculated to assess the DDIs. Safety was evaluated through assessment of adverse events, vital signs, electrocardiogram, and clinical laboratory tests.
Adverse events (AEs) were monitored throughout the DDI study. Additional safety evaluations included monitoring of physical examinations, vital signs, electrocardiogram variables, and clinical laboratory values were assessed

[6] = Digoxin 0.5 mg single dose, elagolix 200 mg twice daily ×10 days, N 11
[7] = Bupropion + Elagolix (Day 11, Period 2)
[8] = Bupropion Alone (Day 1, Period 1)
[9] = single 150 mg bupropion, elagolix 300 mg twice daily for 10 preceding days, interval in brackets
[10] = Midazolam 2 mg single dose, elagolix 150 mg once daily ×13 days, N 11
[11] = Midazolam 2 mg single dose, elagolix 300 mg twice daily ×11 days, N 20
[12] = Rosuvastatin 20 mg once daily, elagolix 300 mg twice daily ×7 days, N 10

CC(NC(C)(C)C)C(=O)c1cccc(Cl)c1.Cl (racemic) [bupropion, (±)-1-(3-chlorophenyl)-2-[(1,1-dimethylethyl)amino]-1-propanone hydrochloride]
changes in exposures when co-administered with elagolix [1]: No clinically significant changes

COc1ccc2nc([S+]([O-])Cc3ncc(CO)c(OC)c3C)[nH]c2c1 (stereo not shown) [5-hydroxyomeprazole]
decrease in AUCinf with elagolix [2]: 20-30%
AUCinf ([2]; 40 mg): 1880 ng·h/mL
AUCt ([2]; 40 mg): 1820 ng·h/mL
Cmax ([2]; 40 mg): 491 ng/mL
t1/2 ([2]; 40 mg): 1.57 h
decrease in AUCinf with elagolix ([2]; 300 mg): ~25%
decrease in Cmax with elagolix ([2]; 300 mg): approximately 30%

C[C@H]1O[C@@H](O[C@H]2[C@@H](O)C[C@H](O[C@H]3[C@@H](O)C[C@H](O[C@H]4CC[C@@]5(C)[C@H](CC[C@@H]6[C@@H]5C[C@@H](O)[C@]5(C)[C@@H](C7=CC(=O)OC7)CC[C@]65O)C4)O[C@@H]3C)O[C@@H]2C)C[C@H](O)[C@@H]1O [digoxin]
Ratio (90% CI) AUC, co-administration with elagolix vs medication alone [1, 6]: 1.26
Ratio (90% CI) Cmax, co-administration with elagolix vs medication alone [1, 6]: 1.71
Effect on Plasma Exposure of Concomitant Drug (AUC) [3]: ↑ digoxin

C[C@]12CC[C@@H]3c4ccc(O)cc4CC[C@H]3[C@@H]1CC[C@@H]2O [estradiol]
metabolism by CYP3A [4]: metabolized partially

OC(Cn1cncn1)(Cn1cncn1)c1ccc(F)cc1F [fluconazole]
changes in exposures when co-administered with elagolix [1]: No clinically significant changes

C[C@H]1NC(C)(C)CO[C@]1(O)c1cccc(Cl)c1 [hydroxybupropion]
Tmax ([5]; Bupropion + Elagolix (Day 11, Period 2), elagolix 300 mg BID): 6.0 h
t1/2 [5, 7]: 20.5 h
AUCinf [5, 7]: 17600 ng·h/mL
AUCt [5, 7]: 17000 ng·h/mL
Cmax [5, 7]: 429 ng/mL
Metabolite to Parent AUCinf Ratio [5, 7]: 15.9
Metabolite to Parent AUCt Ratio [5, 7]: 15.9
Metabolite to Parent Cmax Ratio [5, 7]: 3.92
Tmax ([5]; Bupropion Alone (Day 1, Period 1), 150 mg single dose): 10.0 h
t1/2 [5, 8]: 24.7 h
AUCinf [5, 8]: 16700 ng·h/mL
AUCt [5, 8]: 15700 ng·h/mL
Cmax [5, 8]: 323 ng/mL
Metabolite to Parent AUCinf Ratio [5, 8]: 15.7
Metabolite to Parent AUCt Ratio [5, 8]: 15.4
Metabolite to Parent Cmax Ratio [5, 8]: 3.61
increase in Cmax upon co-administration with elagolix ([5]; elagolix 300 mg BID): 32%
changes in OH-bupropion/bupropion ratios of Cmax and AUC upon co-administration with elagolix ([5]; elagolix 300 mg BID, minimal changes): ≤ 120%
AUCinf ratio, co-administration of bupropion with elagolix vs bupropion alone (A/B) [5, 9]: about 1.063
Cmax ratio, co-administration of bupropion with elagolix vs bupropion alone (A/B) [5, 9]: about 1.317

Cc1ncc2n1-c1ccc(Cl)cc1C(c1ccccc1F)=NC2 [midazolam]
Ratio (90% CI) AUC, co-administration with elagolix vs medication alone [1, 10]: 0.65
Ratio (90% CI) Cmax, co-administration with elagolix vs medication alone [1, 10]: 0.81
Ratio (90% CI) AUC, co-administration with elagolix vs medication alone [1, 11]: 0.46
Ratio (90% CI) Cmax, co-administration with elagolix vs medication alone [1, 11]: 0.56
Effect on Plasma Exposure of Concomitant Drug (AUC) [3]: ↓ midazolam

C#C[C@]1(OC(C)=O)CC[C@H]2[C@@H]3CCC4=CC(=O)CC[C@@H]4[C@H]3CC[C@@]21C [norethindrone acetate]
metabolism by CYP3A [4]: metabolized partially

COc1ccc2nc(S(=O)(=O)Cc3ncc(C)c(OC)c3C)[nH]c2c1 [omeprazole sulfone]
M:P AUCinf Ratio, Relative Bioavailability Point Estimate ([2]; female): 1.246
M:P AUCt Ratio, Relative Bioavailability Point Estimate ([2]; female): 1.497
increase in exposures with elagolix ([2]; female): ~3 fold
Cmax ([2]; female, 40 mg): 162 ng/mL
M:P AUCinf Ratio, Central Value Reference ([2]; female, 40 mg): 0.825
M:P AUCt Ratio, Central Value Reference ([2]; female, 40 mg): 0.679
RAUCinf (metabolite-to-parent AUCinf ratio) ([2]; female, 40 mg): 0.85
RAUCt (metabolite-to-parent AUCt ratio) ([2]; female, 40 mg): 0.76
increase in AUCinf with elagolix ([2]; female, 300 mg): 2.5 fold
increase in Cmax with elagolix ([2]; female, 300 mg): 2.7 fold
increase in M:P AUCinf ratio with elagolix ([2]; female, 300 mg): 25%
Cmax and AUCinf values upon co-administration with elagolix (direction of change) [2]: increased

COc1ccc2[nH]c([S+]([O-])Cc3ncc(C)c(OC)c3C)nc2c1 (stereo not shown) [omeprazole, 5-methoxy-2-[[(4-methoxy3,5-dimethyl-2-pyridinyl)methyl]sulfinyl]-1H-benzimidazole, reference compound]
decrease in AUCinf with elagolix ([2]; female): 40%
increase in AUCinf with elagolix ([2]; female, 300 mg): 1.8 fold
increase in Cmax with elagolix ([2]; female, 300 mg): 1.9 fold
increase in exposure (AUCinf) with elagolix ([2]; female, im): 2-2.5 fold
Cmax and AUCinf values upon co-administration with elagolix (direction of change) [2]: increased
Effect on Plasma Exposure of Concomitant Drug (AUC) [3]: ↑ omeprazole

CC(C)c1nc(N(C)S(C)(=O)=O)nc(-c2ccc(F)cc2)c1/C=C/[C@@H](O)C[C@@H](O)CC(=O)O [rosuvastatin]
Ratio (90% CI) AUC, co-administration with elagolix vs medication alone [1, 12]: 0.60
Ratio (90% CI) Cmax, co-administration with elagolix vs medication alone [1, 12]: 0.99
Effect on Plasma Exposure of Concomitant Drug (AUC) [3]: ↓ rosuvastatin

CN[C@H]1CC[C@@H](c2ccc(Cl)c(Cl)c2)c2ccccc21 [sertraline]
changes in exposures when co-administered with elagolix [1]: No clinically significant changes
